One assay concerns Gene cluster 2631. Kind of assay: HiTES in S. erythraea, gene cluster 2631. To be noted: FIG. 10. The assay is classed as cell-based.
The subject of a further assay is Gene cluster 3648. As to the kind of experiment: HiTES in S. avermitilis, gene cluster 3648. Format: cell-based. To be noted: FIGS. 16 and 17.
The test system of the next assay is Gene cluster 4143. As to the kind of experiment: HiTES in S. erythraea, gene cluster 4143. The assay is classed as cell-based. To be noted: FIG. 12.
For the next assay, the system named is Gene cluster 4477. Kind of assay: HiTES in S. erythraea, gene cluster 4477. Format: cell-based. The following applies: FIG. 14.
In another assay the test system is Gene cluster 4286. Kind of assay: HiTES in S. erythraea, gene cluster 4286. The assay is classed as cell-based. To be noted: FIG. 13.
A further assay relates to S. cerevisiae. Kind of assay: Antifungal microtiter assay. The assay is classed as cell-based. The following applies: Saccharomyces cerevisiae, 40 h, OD600. On the procedure:
Bacillus subtilis 168, E. coli K 12, Pseudomonas aeruginosa PAO1, Enterococcus faecalis OG1RF, Staphylococcus aureus Newman, Saccharomyces cerevisiae and Saccharomyces pombe were used for antibiotic assays. B. subtilis (30° C.), E. coli (37° C.), P. aeruginosa (30° C.), and E. faecalis (37° C.) were cultured in LB medium at the temperatures indicated. S. aureus was cultured in Brain-Heart-Infusion (BHI) medium at 37° C. S. cerevisiae and S. pombe were grown at 25° C. in YPM medium (0.5% yeast extract, 0.3% peptone, 2.5% mannitol), and YES medium (0.5% yeast extract, 3% glucose, 225 mg/L leucine, 225 mg/L histidine, 225 mg/L adenine, 225 mg/L uracil), respectively. The assays were carried out in accordance with the 2003 guidelines of the Clinical and Laboratory Standards Institute (CLSI) using the microtiter method. Briefly, microbial seed cultures were initiated by inoculating 3 mL of the indicated medium each strain and by growing these overnight at the indicated temperatures. Each culture was then diluted to an initial OD600 nm of 0.02 in 100 μL volume per well in a 96-well plate, which gave an inoculum of ˜5×10^5 to 5×10^6 cells. […] The plates were then incubated at the temperatures listed above without shaking and OD600 nm determined after 16 h (bacteria) or 40 h (yeast). […]

The test system of assay [1] is 36 diverse cancer cell lines. To be noted: cited from earlier work.
The subject of a further assay is sur cluster. Kind of assay: High-throughput elicitor screen (HiTES), eGFPx3 reporter strains of the sur cluster. Format: cell-based, Streptomyces albus J1074. To be noted: attB::Psur-eGFPx3 and surE::eGFPx3, ~33 μM, 60 h, hit threshold 2.5-fold eGFP fluorescence. The protocol:
These next four steps are seen be referring to the previously described example. In the previously described example, HiTES was carried out using the two constructs seen in FIGS. 2B and 2C with a ˜500-member natural products library. Each S. albus construct was grown in a 96-well format, supplemented with the compound library, and the effect of each compound on the silent BGC determined using eGFP-derived fluorescence. Interference from naturally fluorescent compounds in the library was eliminated by subtracting the […], immediately after addition of the library members.
Referring to FIGS. 3A and 3B, results for both genetic constructs are shown. These graphs show relative expression of a neutral site reporter, attB::Psur-eGFPx3 (FIG. 3A) or targeted sur reporter, surE::eGFPx3 (FIG. 3B) as a function of exogenously-supplied small molecules. Each bar represents the level of expression of sur in the presence of a single candidate elicitor. Plus signs denote the positive control, attB::PermE-eGFPx3. Minus signs denote the negative controls, attB::Psur-eGFPx3 (3A) or surE::eGFPx3 (3B) in the absence of any metabolites. The expression has been normalized to the positive control.
In this example, the threshold amount was a 2.5 fold induction of eGFP-derived fluorescence emission. Thus, hits were considered those that gave at least a 2.5-fold induction of eGFP-derived fluorescence emission. However, in other embodiments, hits may be those giving at least a 2 fold induction, more preferably at least a 3 fold induction, and more preferably at least a 4 fold induction.
Seed cultures for the reporter strains sur::eGFPx3, attB::Psur-eGFPx3, negative control wild-type, and positive control attB::PermE-eGFPx3 inoculated by transferring fresh spores (˜10^7) into 20 mL of YEME medium (per L: 3% (w/v) yeast extract, 5% peptone, 3% malt extract, 1% glucose and 10.7% sucrose, and 5 mM MgCl2.6H2O) in a 125 mL Erlenmeyer flask equipped with stain-less steel springs. The cultures were grown at 30° C. and 250 rpm for 3 days. Mycelia from each of the four cultures were collected by centrifugation (10 min, 3000 g, RT) and diluted into 150 mL of R4 medium to give a final concentration of 0.05% (w/v). R4 medium consisted of (per L) 0.5% (w/v) glucose, 0.1% yeast extract, 0.5% MgCl2.6H2O, 0.2% CaCl2.2H2O, 0.15% proline, 0.118% valine, 0.28% TES, 50 mg/L casamino acid, 100 mg/L K2SO4, and 1× trace element solution, which contains 40 mg/L ZnCl2, 200 mg/L FeCl3.6H2O, 10 mg/L CuCl2.2H2O, 10 mg/L MnCl2.4H2O, 10 mg/L Na2B4O7.10H2O, and 10 mg/L (NH4)6Mo7O24.4H2O).
Subsequently, the two reporter strains (sur::eGFPx3 and attB::Psur-eGFPx3) were each dispensed into 5× sterile, clear-bottom 96-well plates (150 μL per well) using a MultiFlo Microplate Dispenser (BioTek). A separate sterile 96-well separate plate was prepared for positive and negative controls; it contained the negative control (wt S. albus J1074) in columns 1-3, sur::eGFPx3 in columns 4-6, attB::Psur-eGFPx3 in columns 7-9, and the positive control attB::PermE-eGFPx3 in columns 10-12 of the plate. No elicitors were added to the control plates. […] Upon additional of the compound library, t=0 fluorescence reads were recorded on a Synergy H1MF plate reader (BioTek) using Aex=485 nm and Aem=505-650 nm in 5 nm steps. […]

In another assay the test system is surA and surC. As to the kind of experiment: RT-qPCR of surA and surC transcripts in wt S. albus. The assay is classed as cell-based, Streptomyces albus J1074. To be noted: for induction of surA and surC: mRNA vs DMSO control, wt S. albus. On the procedure: In the example above, the effects of these putative elicitors on the sur cluster were validated by performing a RT-qPCR with wt S. albus. Upon exposure of S. albus to each elicitor or DMSO (control), total RNA was be isolated, converted to cDNA and the surA and surC transcripts quantified by qPCR. […] To further verify the effect of 1 and 2, a dose-response assay was carried out. With both elicitors, a concentration-dependent induction of sur was observed, yielding optimal upregulation at a final concentration of ˜23 μM (etoposide) and −30 μM (ivermectin) (FIG. 4B). These concentrations induced a ˜10-fold (etoposide) and 4.5-fold (ivermectin) upregulation of surC.
All operations involving RNA utilized a dedicated RNase-free work area. To commence the experiment, seed cultures of wt S. albus J1074 were prepared by inoculating 3 ml of TSBY medium (3% (w/v) tryptic soy broth and 0.5% yeast extract) in a sterile 14 ml bacterial culture tube with freshly-prepared spores (˜10^7). The culture was incubated at 30° C. and 250 rpm in an Ecotron Shaker (ATR). After 48 hours cultivation, the cells were collected by centrifugation and subsequently diluted to a final concentration of 0.05% (w/v) in 250 ml Erlenmeyer flask containing 50 ml of R4 medium. Desired elicitors were added to final concentrations indicated in the figures (typically 1-100 μM), and the cultures were incubated at 30° C. and 250 rpm. After 48 h, 1 ml was removed from each sample and transferred to a 1.5 ml RNase-free Eppendorf tube (Ambion). Each sample was centrifuged (16,000 g, 3 min) to collect the cells, the supernatant discarded, the cells flash-frozen in liquid N2, and stored at −80° C.
RNA isolation was carried out using the Qiagen RNeasy kit following the manufacturer's instructions without modifications. Upon isolation, contaminating DNA was removed using the DNA-free kit (Ambion) according to manufacturer's instructions. Gel electrophoreses subsequently confirmed RNA integrity (FIG. S2). Finally, total RNA was converted into cDNA via the PrimeScript™ RT reagent Kit (Takara) using random hexamers as primers and 500 ng of each RNA sample as template.
Three genes (surA, surC and surR) were chosen for quantification by RT-qPCR. The primers were designed using primer-3-plus software available online. The primers were carefully chosen to give an amplicon length of 130-160 bp and a melting temperature of 60° C., though this was later optimized (see below and Table 2). The primers were chosen to vary in length between 18-22 bp, and, if possible, to contain a single G/C clamp at the 3′ end. To ensure optimal qPCR parameters, the genomic DNA of S. albus J1074 was isolated using the Wizard genomic DNA purification kit (Promega), and each amplicon was subsequently amplified using standard PCR conditions with a high-fidelity, proof-reading Q5 DNA polymerase (NEB). The PCR reactions were then separated on a 1.2% agarose gel, the amplicon excised, and gel-extracted with the Gel Extraction kit (Qiagen). The extracted DNA was used to optimize qPCR conditions. Using the amplicon template, the primer concentrations were first varied followed by the annealing/extension temperatures, which ranged from 58-68° C. in eight steps. The combination that gave the lowest quantification cycle (Cq) was used in the experiments (Table 2). The Cq was obtained with an automatic baseline determined by the CFX Manager Software (Bio-Rad). As positive controls, these standards were included in every plate that contained the experimental samples, along with no-DNA controls, in duplicates.
qPCR analysis was performed on a CFX96 Real-Time PCR Detection System (Bio-Rad) consisting of a C1000 Thermal Cycler and a CFX96 Real-Time System. The reaction was carried out in hard-shell, clear 96-well qPCR plates (Bio-Rad) and utilized the iTaq Universal SYBR Green Supermix (Bio-Rad). […]
In general terms: Quantitative PCR measures a nucleic acid by following its amplification.

In a further assay the target is T1, cathepsin B (Homo sapiens, UniProt P07858).
T1 construct: purchased Sigma-Aldrich
As to the kind of experiment: Cathepsin B inhibition assay (fluorescence kit). Format: biochemical. The protocol: Cathepsin B inhibition assays were carried as previously reported using the Cathepsin B Inhibition assay kit (Sigma-Aldrich). The fluorescence-based assays was conducted in a final volume of 50 μL according to manufacturer instructions. Fluorescence emission was determined in a microtiter plate in kinetic mode (1 read per minute for 1 h) using a BioTek H1MF plate reader and Aex˜400/Acm˜505 nm. IC50 values were subsequently calculated according to instructions.

Read-outs that look alike come from different tables or passages of the source. Square brackets hold non-standard residues; d marks the D form. Peptide text beside a SMILES is read from it. * marks the point of attachment. ξ: configuration not given here. dIle(3ξ) = CCC(C)[C@@H](N)C(=O)O; Ile(3ξ) = CCC(C)[C@H](N)C(=O)O; ξK = NCCCCC(N)C(=O)O; Butyryl = CCCC(=O)*

Consider `COc1c2ccoc2cc2oc(=O)ccc12` [Bergapten], for which the “elicitor of gene cluster 2631 (ranking)” value in the assay on Gene cluster 2631 was “top three elicitors”.
Take `COc1cc(CNC(=O)CCCC/C=C/C(C)C)ccc1O` [Capsacin]: the “elicitor of gene cluster 3648 (ranking)” value in the assay on Gene cluster 3648 is reported as “top four elicitors”.
`OCc1c[nH]c2ccccc12` [Indole-3-carbinol]: the “elicitor of gene cluster 4143 (ranking)” value in the assay on Gene cluster 4143 was “top three elicitors”. The “elicitor of gene cluster 4477 (ranking)” value with Gene cluster 4477 is reported as “top three elicitors”.
For the molecule `CC#C[C@]1(O)CC[C@H]2[C@@H]3CCC4=CC(=O)CCC4=C3[C@@H](c3ccc(N(C)C)cc3)C[C@@]21C` [Mifepristone], the “elicitor of gene cluster 3648 (ranking)” value in the assay with Gene cluster 3648 is reported as “top four elicitors”.
In the case of `CC[C@H](C)/C=C(C)/C=C/C1=CC2=C(Cl)C(=O)[C@](C)(OC(C)=O)C(=O)C2=CO1` [Sclerotiorin], the “elicitor of gene cluster 4286 (ranking)” value in the assay on Gene cluster 4286 is listed as “top three elicitors”.
In turn, `CCCC(=O)NCCCCC1NC(=O)[C@@H](C(C)CC)NC(=O)[C@H](C(C)CC)NC(=O)[C@@H](C)NC(=O)[C@H](C(C)CC)NC(=O)[C@@H](CC(C)C)NC(=O)[C@@H](Cc2ccccc2)NC(=O)[C@H](C(C)CC)NC1=O` (stereo partly drawn) [acylsurugamide A] (cyclo([Ile(3ξ)][dA][Ile(3ξ)][dIle(3ξ)][ξK](Butyryl)[Ile(3ξ)][dF][dL])) showed an IC50 in the assay with S. cerevisiae of 3.5 µM.
For the molecule `CNC1=CC(=O)c2cc(C)ncc2C1=O` [compound 25, 3-methyl-7-methylamino-5,8-isoquinolinedione], the IC50 in [1] (read-out: IC50s (range over panel)) is 0.2 to 50 µM; in [1] (read-out: mean IC50), 3.5 µM.
For `CC(C)[C@@]1(NC(=O)[C@@H]2C[C@@H]3c4cccc5[nH]cc(c45)C[C@H]3N(C)C2)O[C@@]2(O)[C@@H]3CCCN3C(=O)[C@H](Cc3ccccc3)N2C1=O` [dihydroergocristine], the “induction of the sur cluster in both reporter strains (hit ranking)” value (shortened to “induction of the sur cluster”) in the assay on sur cluster is “best hits”. In addition, in the assay on surA and surC, the “induction of surA and surC” value was 3 fold.
In the case of `Oc1cc(O)cc(/C=C/c2ccc(O)c(O)c2)c1` [piceattanol], the “induction of the sur cluster” value in the assay with sur cluster is “best hits”.
With `CC(C)C[C@H]1NC(=O)[C@@H](Cc2ccccc2)NC(=O)[C@H](C(C)C)NC(=O)[C@H](CCCCN)NC(=O)[C@@H](C(C)C)NC(=O)[C@H](C(C)C)NC(=O)[C@@H](C)NC(=O)[C@H](C(C)C)NC1=O` [surugamide I] (cyclo(KV[dF][dL]V[dA]V[dV])), the IC50 against cathepsin B was found to be 9 µM.
As to bromolaudanosine, the “induction of the sur cluster” value in the assay on sur cluster was “best hits”.
For ivermectin, in the assay with sur cluster, the “induction of the sur cluster” value is “best hits”. Moreover, the “upregulation of surC” value with surA and surC (at the optimal elicitor concentration, vs DMSO) amounted to 4.5 fold. Moreover, in the assay with surA and surC, the “induction of surA and surC” value amounted to 3 fold. The “elicitor of gene cluster 4143 (ranking)” value in the assay with Gene cluster 4143 is on record as “top three elicitors”.

These data come from patent US11629174B2, “Cryptic metabolites and method for activating silent biosynthetic gene clusters in actinomycete bacteria” (The Trustees of Princeton University, priority 2017, dated 2023).
